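Grown in 96-well plates, cells were treated for 48 hours with each compound at five concentrations. Insufficient inhibition: endpoint recorded as highest concentration tested. Here, GI50 denotes the concentration required for 50% inhibition of growth. TGI denotes the concentration required for complete inhibition of growth.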
What was measured:
Assay in all cases: DTP human tumour cell line panel, 48 h
T-47D breast = test system: T-47D breast
MDA-MB-468 breast = test system: MDA-MB-468 breast
OVCAR-4 ovarian = test system: OVCAR-4 ovarian
SF-268 CNS = test system: SF-268 CNS
DU-145 prostate = test system: DU-145 prostate
U251 CNS = test system: U251 CNS
HOP-62 NSCLC = test system: HOP-62 NSCLC
IGROV1 ovarian = test system: IGROV1 ovarian
PC-3 prostate = test system: PC-3 prostate
SNB-75 CNS = test system: SNB-75 CNS
CAKI-1 renal = test system: CAKI-1 renal
MDA-MB-435 = test system: MDA-MB-435
NCI/ADR-RES ovarian = test system: NCI/ADR-RES ovarian
SW-620 colon = test system: SW-620 colon
SF-539 CNS = test system: SF-539 CNS
MALME-3M melanoma = test system: MALME-3M melanoma
RXF 393 renal = test system: RXF 393 renal
SK-MEL-2 melanoma = test system: SK-MEL-2 melanoma
SNB-19 CNS = test system: SNB-19 CNS
OVCAR-3 ovarian = test system: OVCAR-3 ovarian
UACC-62 melanoma = test system: UACC-62 melanoma
MOLT-4 leukemia = test system: MOLT-4 leukemia
HL-60(TB) leukemia = test system: HL-60(TB) leukemia
SN12C renal = test system: SN12C renal
NCI-H460 lung = test system: NCI-H460 lung
SF-295 CNS = test system: SF-295 CNS
BT-549 breast = test system: BT-549 breast
SK-OV-3 ovarian = test system: SK-OV-3 ovarian
A549 NSCLC = test system: A549 NSCLC
NCI-H23 lung = test system: NCI-H23 lung
LOX IMVI melanoma = test system: LOX IMVI melanoma
TK-10 renal = test system: TK-10 renal
HCC-2998 colon = test system: HCC-2998 colon
CCRF-CEM leukemia = test system: CCRF-CEM leukemia
EKVX NSCLC = test system: EKVX NSCLC
HCT-116 colon = test system: HCT-116 colon
A498 renal = test system: A498 renal
SK-MEL-5 melanoma = test system: SK-MEL-5 melanoma
NCI-H522 lung = test system: NCI-H522 lung
UO-31 renal = test system: UO-31 renal
NCI-H226 lung = test system: NCI-H226 lung
HT29 colon = test system: HT29 colon
UACC-257 melanoma = test system: UACC-257 melanoma
MDA-MB-231 breast = test system: MDA-MB-231 breast
OVCAR-8 ovarian = test system: OVCAR-8 ovarian
SR leukemia = test system: SR leukemia
KM12 colon = test system: KM12 colon
SK-MEL-28 melanoma = test system: SK-MEL-28 melanoma
COLO 205 colon = test system: COLO 205 colon
OVCAR-5 ovarian = test system: OVCAR-5 ovarian
HS 578T breast = test system: HS 578T breast
HOP-92 NSCLC = test system: HOP-92 NSCLC
HCT-15 colon = test system: HCT-15 colon
M14 melanoma = test system: M14 melanoma
K-562 leukemia = test system: K-562 leukemia
MCF7 breast = test system: MCF7 breast
RPMI-8226 leukemia = test system: RPMI-8226 leukemia
786-0 renal = test system: 786-0 renal
ACHN renal = test system: ACHN renal

For `O=C(NNC(=S)NC(=O)c1ccccc1)c1ccc(OCc2nc3ccc(Cl)cc3[nH]2)cc1`, the GI50 (T-47D breast) was 3.12 µM, the TGI (T-47D breast) was 18.6 µM and the GI50 (MDA-MB-468 breast) was 2.52 µM. For the same compound, the TGI (MDA-MB-468 breast) was 9.45 µM, the GI50 (OVCAR-4 ovarian) was 2.34 µM and the TGI (OVCAR-4 ovarian) was 14.8 µM. The GI50 (SF-268 CNS) was 2.42 µM, the TGI (SF-268 CNS) was 12 µM and the GI50 (DU-145 prostate) was 3.02 µM. The TGI (DU-145 prostate) was 15.3 µM, the GI50 (U251 CNS) was 1.71 µM and the TGI (U251 CNS) was 3.46 µM. For the same compound, the GI50 (HOP-62 NSCLC) was 1.76 µM, the TGI (HOP-62 NSCLC) was 3.56 µM and the GI50 (IGROV1 ovarian) was 2.18 µM. The TGI (IGROV1 ovarian) was 5.33 µM, the GI50 (PC-3 prostate) was 1.79 µM and the TGI (PC-3 prostate) was 4.96 µM. The GI50 (SNB-75 CNS) was 1.48 µM, the TGI (SNB-75 CNS) was 4.78 µM and the GI50 (CAKI-1 renal) was 2.48 µM. For the same compound, the TGI (CAKI-1 renal) was 9.45 µM, the GI50 (MDA-MB-435) was 1.81 µM and the TGI (MDA-MB-435) was 4.37 µM. The GI50 (NCI/ADR-RES ovarian) was 0.396 µM, the TGI (NCI/ADR-RES ovarian) was 2.55 µM and the GI50 (SW-620 colon) was 1.99 µM. It also gave a TGI (SW-620 colon) of 4.55 µM, a GI50 (SF-539 CNS) of 1.76 µM and a TGI (SF-539 CNS) of 3.23 µM. It also gave a GI50 (MALME-3M melanoma) of 1.53 µM, a TGI (MALME-3M melanoma) of 3.08 µM and a GI50 (RXF 393 renal) of 2.32 µM. The TGI (RXF 393 renal) was 6.67 µM, the GI50 (SK-MEL-2 melanoma) was 2.08 µM and the TGI (SK-MEL-2 melanoma) was 4.95 µM. It also gave a GI50 (SNB-19 CNS) of 2.1 µM, a TGI (SNB-19 CNS) of 6.68 µM and a GI50 (OVCAR-3 ovarian) of 1.85 µM. The TGI (OVCAR-3 ovarian) was 4.55 µM, the GI50 (UACC-62 melanoma) was 1.67 µM and the TGI (UACC-62 melanoma) was 3.11 µM. The GI50 (MOLT-4 leukemia) was 2.22 µM, the TGI (MOLT-4 leukemia) was 10.2 µM and the GI50 (HL-60(TB) leukemia) was 2.22 µM. The TGI (HL-60(TB) leukemia) was 7.24 µM, the GI50 (SN12C renal) was 1.57 µM and the TGI (SN12C renal) was 3.16 µM. The GI50 (NCI-H460 lung) was 1.26 µM, the TGI (NCI-H460 lung) was 3.6 µM and the GI50 (SF-295 CNS) was 1.27 µM. It also gave a TGI (SF-295 CNS) of 2.98 µM, a GI50 (BT-549 breast) of 1.54 µM and a TGI (BT-549 breast) of 3.14 µM. It also gave a GI50 (SK-OV-3 ovarian) of 2.05 µM, a TGI (SK-OV-3 ovarian) of 4.89 µM and a GI50 (A549 NSCLC) of 1.99 µM. For the same compound, the TGI (A549 NSCLC) was 4.49 µM, the GI50 (NCI-H23 lung) was 1.78 µM and the TGI (NCI-H23 lung) was 3.7 µM. It also gave a GI50 (LOX IMVI melanoma) of 1.26 µM, a TGI (LOX IMVI melanoma) of 2.64 µM and a GI50 (TK-10 renal) of 4.49 µM. It also gave a TGI (TK-10 renal) of 21.2 µM, a GI50 (HCC-2998 colon) of 1.68 µM and a TGI (HCC-2998 colon) of 3.35 µM. The GI50 (CCRF-CEM leukemia) was 1.44 µM, the TGI (CCRF-CEM leukemia) was 10.5 µM and the GI50 (EKVX NSCLC) was 2.12 µM. For the same compound, the TGI (EKVX NSCLC) was 5.75 µM, the GI50 (HCT-116 colon) was 1.52 µM and the TGI (HCT-116 colon) was 3.51 µM. The GI50 (A498 renal) was 1.6 µM, the TGI (A498 renal) was 4.39 µM and the GI50 (SK-MEL-5 melanoma) was 1.78 µM. The TGI (SK-MEL-5 melanoma) was 3.93 µM, the GI50 (NCI-H522 lung) was 3.3 µM and the TGI (NCI-H522 lung) was 13.4 µM. For the same compound, the GI50 (UO-31 renal) was 1.39 µM, the TGI (UO-31 renal) was 4.11 µM and the GI50 (NCI-H226 lung) was 2.02 µM. It also gave a TGI (NCI-H226 lung) of 7.82 µM, a GI50 (HT29 colon) of 3.45 µM and a TGI (HT29 colon) of 13.7 µM. The GI50 (UACC-257 melanoma) was 2.85 µM, the TGI (UACC-257 melanoma) was 10.5 µM and the GI50 (MDA-MB-231 breast) was 1.71 µM. It also gave a TGI (MDA-MB-231 breast) of 3.37 µM, a GI50 (OVCAR-8 ovarian) of 2.1 µM and a TGI (OVCAR-8 ovarian) of 5.07 µM. It also gave a GI50 (SR leukemia) of 2.52 µM, a TGI (SR leukemia) of 11.7 µM and a GI50 (KM12 colon) of 1.89 µM. It also gave a TGI (KM12 colon) of 4.11 µM, a GI50 (SK-MEL-28 melanoma) of 1.65 µM and a TGI (SK-MEL-28 melanoma) of 3.23 µM. For the same compound, the GI50 (COLO 205 colon) was 2.66 µM, the TGI (COLO 205 colon) was 9.34 µM and the GI50 (OVCAR-5 ovarian) was 1.8 µM. The TGI (OVCAR-5 ovarian) was 3.93 µM, the GI50 (HS 578T breast) was 2.17 µM and the TGI (HS 578T breast) was 7.3 µM. For the same compound, the GI50 (HOP-92 NSCLC) was 2.18 µM, the TGI (HOP-92 NSCLC) was 6.26 µM and the GI50 (HCT-15 colon) was 0.567 µM. The TGI (HCT-15 colon) was 2.13 µM, the GI50 (M14 melanoma) was 1.55 µM and the TGI (M14 melanoma) was 3.79 µM. It also gave a GI50 (K-562 leukemia) of 2.79 µM, a TGI (K-562 leukemia) greater than 100 µM and a GI50 (MCF7 breast) of 2.91 µM. For the same compound, the TGI (MCF7 breast) was 17.7 µM, the GI50 (RPMI-8226 leukemia) was 2.83 µM and the TGI (RPMI-8226 leukemia) was 21.6 µM. For the same compound, the GI50 (786-0 renal) was 2.05 µM, the TGI (786-0 renal) was 6.12 µM and the GI50 (ACHN renal) was 2.04 µM. The TGI (ACHN renal) was 5.82 µM.

— PubChem BioAssay (NCI)
